Test results reported in patent publication US20110059948A1, “QUINOLINE, NAPHTHALENE AND CONFORMATIONALLY CONSTRAINED QUINOLINE OR NAPHTHALENE DERIVATIVES AS ANTI-MYCOBACTERIAL AGENTS” (priority 2008, published 2011).
Values after ≈ are worked out from the molar mass of the structure shown. Like-named read-outs stand apart in the source and are kept apart here.

What was measured:
[1] = tested on: M. tuberculosis H37RV ATCC 27294; test: In vitro growth inhibition assay, BACTEC 460 TB system; format: cell-based, Mycobacterium tuberculosis
[2] = tested on: M. Tuberculosis strain (H37RV); test: In vitro agar dilution assay (MIC, NCCLS-M24-T2); format: cell-based, Mycobacterium tuberculosis; conditions: for MIC: Mycobacterium tuberculosis, ATCC 27294 / H37Rv, read-out: MIC against M. tuberculosis (H37RV ATCC27294)
[3] = tested on: M. avium-intracellular Complex; test: In vitro agar dilution assay (MIC); format: cell-based, Mycobacterium avium-intracellular complex; conditions: for MIC M. avium-intracellulare Complex (n = 10): n = 10 strains tested
M. fortuitum = test: In vitro agar dilution assay (MIC); format: cell-based, Mycobacterium fortuitum; conditions: n = 2 strains tested
M. kansasii = test: In vitro agar dilution assay (MIC); format: cell-based, Mycobacterium kansasii; conditions: n = 2 strains tested
[4] = tested on: clinical isolates generally susceptible to common tubercular agents; test: microbe, parasite or virus in culture; format: cell-based, Mycobacterium tuberculosis; conditions: for MIC M. tuberculosis Sensitive (n = 20): clinical isolates, n = 20 strains tested
[5] = tested on: M. Tuberculosis strain (H37RV); conditions: Janssen WO2004/011436; cited from earlier work
[6] = agar dilution, Middlebrook 7H10

SMILES: COc1nc2ccc(Br)cc2c2c1C(C)(OCC(O)Cn1ccc(-c3ccc(C(F)(F)F)cc3)n1)c1ccccc1-2 (stereo not drawn)
- melting point: 65 to 67 °C

SMILES: CC(c1cc(F)ccc1Oc1nc2ccc(-n3cc(-c4ccccc4)nn3)cc2cc1Cc1ccccc1)n1ccnc1 (stereo not drawn)
- melting point: 118 to 120 °C

SMILES: CC(O)c1cc(F)ccc1Oc1nc2ccc(NC(=O)Nc3cccc([N+](=O)[O-])c3)cc2cc1Cc1ccccc1 (stereo not drawn)
- melting point: 217 to 219 °C

SMILES: COc1nc2ccc(Br)cc2cc1C(c1ccccc1)n1ccnc1 (racemic)
- melting point: 161 to 162 °C

SMILES: COc1nc2ccc(Br)cc2cc1C(c1ccccc1)n1cccn1 (racemic)
- melting point: 142 to 144 °C

SMILES: COc1nc2ccc(Br)cc2cc1C(Nc1ccc2oc(=O)ccc2c1)c1ccccc1 (racemic)
- melting point: 88 to 89 °C

SMILES: COC(=O)C(C(=O)N1CCOCC1)C(c1ccccc1)c1cc2cc(Br)ccc2nc1OC (stereo not drawn) [Example 1] [listing 1 of 2 here]
- melting point: 206 to 208 °C

SMILES: COC(=O)C(C(=O)N1CCOCC1)C(c1ccccc1)c1cc2cc(Br)ccc2nc1OC (stereo not drawn) [Example 1] [listing 2 of 2 here]
- melting point: 187.5 to 189.5 °C

SMILES: CC(c1cc(F)ccc1Oc1nc2ccc(-n3cc(-c4ccccc4)nn3)cc2cc1Cc1ccccc1)n1ccnc1 (stereo not drawn) [Example 23]
- mark “a” at the serial number (99% inhibition at <4 μg/ml), Tables 2-4 [1]: 23a (Compounds marked with “a” have shown 99% inhibition at <4 μg/ml)
- MIC against M. tuberculosis (H37RV ATCC27294) [2, 6]: <3.125 µg/mL
- MIC M. avium-intracellulare Complex (n = 10) [3]: <4.0 µg/mL
- MIC M. fortuitum (n = 2) (M. fortuitum): <4.0 µg/mL
- MIC M. kansasii (n = 2) (M. kansasii): <4.0 µg/mL
- MIC M. tuberculosis Sensitive (n = 20) [4]: <3.125 µg/mL

SMILES: COc1cccc(NC(=O)Nc2ccc3nc(Oc4ccc(F)cc4C(C)O)c(Cc4ccccc4)cc3c2)c1 (stereo not drawn) [Example 26]
- mark “a” at the serial number (99% inhibition at <4 μg/ml), Tables 2-4 [1]: 26a (Compounds marked with “a” have shown 99% inhibition at <4 μg/ml)
- MIC against M. tuberculosis (H37RV ATCC27294) [2, 6]: <3.125 µg/mL
- MIC M. avium-intracellulare Complex (n = 10) [3]: <4.0 µg/mL
- MIC M. fortuitum (n = 2) (M. fortuitum): <4.0 µg/mL
- MIC M. kansasii (n = 2) (M. kansasii): <4.0 µg/mL
- MIC M. tuberculosis Sensitive (n = 20) [4]: <3.125 µg/mL

SMILES: CC(O)c1cc(F)ccc1Oc1nc2ccc(NC(=O)Nc3cccc([N+](=O)[O-])c3)cc2cc1Cc1ccccc1 (stereo not drawn) [Example 31]
- mark “a” at the serial number (99% inhibition at <4 μg/ml), Tables 2-4 [1]: 31a (Compounds marked with “a” have shown 99% inhibition at <4 μg/ml)
- MIC against M. tuberculosis (H37RV ATCC27294) [2, 6]: <3.125 µg/mL
- MIC M. avium-intracellulare Complex (n = 10) [3]: >8.0 µg/mL
- MIC M. fortuitum (n = 2) (M. fortuitum): >8.0 µg/mL
- MIC M. kansasii (n = 2) (M. kansasii): >8.0 µg/mL
- MIC M. tuberculosis Sensitive (n = 20) [4]: <6.25 µg/mL

SMILES: ON=C1c2ccccc2-c2c1c(N1CCN(c3ccccn3)CC1)nc1ccc(Br)cc21 [Example 134]
- mark “a” at the serial number (99% inhibition at <4 μg/ml), Tables 5A-N, 6-10 [1]: 134a (Compounds marked with “a” have shown 99% inhibition at <4 μg/ml)
- MIC against M. tuberculosis (H37RV ATCC27294) [2, 6]: <6.25 µg/mL
- MIC M. avium-intracellulare Complex (n = 10) [3]: <6.25 µg/mL
- MIC M. fortuitum (n = 2) (M. fortuitum): >8.0 µg/mL
- MIC M. kansasii (n = 2) (M. kansasii): >8.0 µg/mL
- MIC M. tuberculosis Sensitive (n = 20) [4]: <6.25 µg/mL

SMILES: COc1nc2ccc(Br)cc2cc1C(c1ccccc1)[C@@](O)(CCN(C)C)c1cccc2ccccc12 (stereo partly drawn) [Example R207910]
- MIC value against the M. Tuberculosis strain (H37RV) [5]: 0.07 µg/mL (≈ 0.126 µM)

SMILES: NNC(=O)c1ccncc1 [Isoniazid, reference compound]
- MIC [2, 6]: 0.25 µg/mL (≈ 1.82 µM)
- MIC ([3]; Mycobacterium, read-out: MIC M. avium-intracellulare Complex (n = 10)): > 16 µg/mL
- MIC (M. fortuitum; Mycolicibacterium fortuitum, read-out: MIC M. fortuitum (n = 2)): > 16 µg/mL
- MIC (M. kansasii; Mycobacterium kansasii, read-out: MIC M. kansasii (n = 2)): > 16 µg/mL
- MIC ([4]; Mycobacterium tuberculosis, read-out: MIC M. tuberculosis Sensitive (n = 20)): 0.25 µg/mL (≈ 1.82 µM)

SMILES: CO[C@H]1/C=C/O[C@@]2(C)Oc3c(C)c(O)c4c(O)c(c(/C=N/N5CCN(C)CC5)c(O)c4c3C2=O)NC(=O)/C(C)=C\C=C\[C@H](C)[C@H](O)[C@@H](C)[C@@H](O)[C@@H](C)[C@H](OC(C)=O)[C@@H]1C [Refampin, Rifampicin, reference compound]
- MIC [2]: 0.25 µg/mL (≈ 0.304 µM)
